Results as given in patent US10732169B2, “Personalized healthcare P4 drug monitoring system and method” (eNano Health Limited, priority 2016, dated 2020).

Legend:
[1] = LC/MS, all subjects, FIG. 15
Protocol: In a third illustrative example, the detection of a HIV drug in saliva is conducted according to the claimed invention. […] Sample analysis hardware includes chromatography and mass spectrometry functionality and can additionally include genetic sequencing functionality.

[2] = Keppra levels in dried spot saliva samples over time after taking the drug, LC/MS; type: in vivo; details: two separate days, FIG. 14
Protocol: FIGS. 9 to 14 further illustrate the detection of Keppra in saliva. Levetiracetam (Trade Name: Keppra), is a medication used to treat epilepsy. In the illustrative example, the saliva specimens are collected on 2 separate days. On each day, subject is asked to collect blood/saliva samples before taking Keppra (time=0 hour), and after taking the drug (time=1, 2, 4, 8 hours). Saliva samples are collected in both liquid and dried spot forms. Blood samples are collected in dried spot form and are stored at room temperature before transportation for analytical laboratory analysis using LC/MS.
FIG. 13 is a graphical representation of Keppra levels using dried saliva comparatively measured. Graphical representation 1301 illustrates the comparison of dried saliva spot samples over two separate days.
FIG. 14 is a graphical representation of Keppra levels using dried saliva comparatively measured. The half-life of Keppra is known to be 5-8 hours. […] Consequently, dried spot saliva samples reliably reflect clearance of Keppra from the body according to the claimed invention.

[3] = known value; cited from earlier work

time after which Keppra level depleted by half [2] [h] | SMILES | detection of drug fragment ion in saliva [1] | half-life [3] [h]
 | Nc1nc(=O)n([C@@H]2CS[C@H](CO)O2)cc1F [FTC] | detection of the FTC fragment ion | 
8 | CC[C@@H](C(N)=O)N1CCCC1=O [Keppra, Levetiracetam] |  | 5 to 8
